Type in all cases: functional, cell-based
The test system of one assay is A549. As to the kind of experiment: Cytotoxicity against human A549 cells after 96 hrs by MTT assay. The following applies: A549, 96 h.
For another assay, the system named is MCF7. The assay is described as follows: Cytotoxicity against human MCF7 cells after 96 hrs by MTT assay. The following applies: MCF7, 96 h.
A further assay deals with HCT-8. As to the kind of experiment: Cytotoxicity against human HCT8 cells after 96 hrs by MTT assay. As to conditions: HCT-8, 96 h.
Another assay deals with BGC-823. As to the kind of experiment: Cytotoxicity against human BGC823 cells after 96 hrs by MTT assay. The following applies: BGC-823, 96 h.
The next assay has as its system KETR3. As to the kind of experiment: Cytotoxicity against human Ketr3 cells after 96 hrs by MTT assay. As to conditions: KETR3, 96 h. In general terms: Tetrazolium assays rely on reduction of a dye to a coloured formazan, in cell work by metabolically active cells.
The subject of another assay is Bel-7402. The assay is described as follows: Cytotoxicity against human Bel7402 cells after 96 hrs by MTT assay. As to conditions: Bel-7402, 96 h.

A value given as a limit tells only on which side of the number the result lay.

Among the data in ChEMBL document CHEMBL1151203, “Phelligridins C-F: cytotoxic pyrano[4,3-c][2]benzopyran-1,6-dione and furo[3,2-c]pyran-4-one derivatives from the fungus Phellinus igniarius” (J Nat Prod, 2004) are IC50 values, retold here.

As a reminder, the IC50 is the concentration needed to halve the response being measured. The low end stands for greater potency, the high end for weaker potency. `O=c1oc2cc(/C=C/c3ccc(O)cc3)oc(=O)c2c2cc(O)c(O)cc12` [PHELLIGRIDIN C]: the IC50 with A549 was 12 µM; with MCF7, 72 µM; in the assay on HCT-8, 126 µM; with BGC-823, over 137 µM; in the assay on KETR3, 0.094 µM; in the assay on Bel-7402 it was 10 µM.

Turning to `O=c1oc2cc(/C=C/c3ccc(O)c(O)c3)oc(=O)c2c2cc(O)c(O)cc12` [PHELLIGRIDIN D], the IC50 in the assay on A549 is 16 µM; with MCF7, 37 µM; with HCT-8, 99 µM; in the assay on BGC-823 it was over 131 µM; in the assay with KETR3, 0.09 µM; with Bel-7402, 8 µM.

`CC1=CC(=O)C2(O1)c1c(cc(/C=C/c3ccc(O)c(O)c3)oc1=O)OC2c1ccc(O)c(O)c1` (stereo not given) [INOSCAVIN A]: the half-maximal inhibitory concentration (IC50) is over 108 µM with A549; over 108 µM in the assay with MCF7; over 108 µM in the assay on HCT-8; over 108 µM in the assay on BGC-823; over 0.108 µM with KETR3; 88 µM in the assay with Bel-7402.

Consider `Cc1cc2oc(=O)c3cc(O)c(O)cc3c2c(=O)o1` [PHELLIGRIDIN A], for which the IC50 was over 192 µM in the assay with A549; 109 µM in the assay on MCF7; over 192 µM in the assay with HCT-8; 181 µM in the assay on BGC-823; over 0.192 µM with KETR3; 110 µM with Bel-7402.

With `CC1=CC(=O)C2(O1)C(c1cc3oc(=O)c4cc(O)c(O)cc4c3c(=O)o1)=Cc1cc(O)c(O)cc12` (stereo not given) [PHELLIGRIDIN E], the half-maximal inhibitory concentration (IC50) was 79 µM in the assay on A549; 70 µM in the assay with MCF7; over 105 µM with HCT-8; 96 µM in the assay on BGC-823; over 0.105 µM in the assay with KETR3; 55 µM in the assay with Bel-7402.

As for `CC[C@@]1(O)C(=O)OCc2c1cc1n(c2=O)Cc2cc3c(CN(C)C)c(O)ccc3nc2-1` [TOPOTECAN], the IC50 came out at 3.2 µM in the assay with A549; 1.8 µM in the assay on MCF7; 1.5 µM in the assay on HCT-8; 4.3 µM in the assay with BGC-823; 0.0049 µM in the assay with KETR3; 1.2 µM in the assay with Bel-7402.

Consider `CC(=O)/C=C(O)/C=C/c1ccc(O)c(O)c1` [HISPOLON], for which the IC50 with A549 came to 183 µM; with MCF7, 25 µM; in the assay with HCT-8 it was 199 µM; in the assay with BGC-823 it was 205 µM; in the assay on KETR3, 0.206 µM; in the assay with Bel-7402, 38 µM.

In the case of `COC1(CC(C)=O)Oc2cc(/C=C/c3ccc(O)c(O)c3)oc(=O)c2/C1=C/c1ccc(O)c(O)c1` (stereo not given) [PHELLIGRIDIN F], the IC50 is 84 µM with A549; 85 µM in the assay on MCF7; over 104 µM with HCT-8; 92 µM in the assay on BGC-823; over 0.104 µM in the assay on KETR3; 46 µM with Bel-7402.

On to `COC(=O)c1c(O)cc(/C=C/c2ccc(O)c(O)c2)oc1=O` [PHELLIGRIDIN B], for which the IC50 is over 164 µM in the assay with A549; 143 µM with MCF7; 139 µM with HCT-8; 146 µM in the assay on BGC-823; 0.144 µM with KETR3; 50 µM in the assay on Bel-7402.

Consider `CC(=O)/C=C/c1ccc(O)c(O)c1`, for which the IC50 in the assay with A549 is over 280 µM; with MCF7, 141 µM; in the assay on HCT-8 it was 227 µM; with BGC-823, 243 µM; with KETR3, 0.245 µM; in the assay on Bel-7402 it was 153 µM.
